This experiment has as its target T1, COX2 (Rattus norvegicus, UniProt P35355).
T1 construct: in-vitro autoradiography in rat brain slices; from tissue; host or cells: rat brain slices
T1 sequence (P35355 18-604): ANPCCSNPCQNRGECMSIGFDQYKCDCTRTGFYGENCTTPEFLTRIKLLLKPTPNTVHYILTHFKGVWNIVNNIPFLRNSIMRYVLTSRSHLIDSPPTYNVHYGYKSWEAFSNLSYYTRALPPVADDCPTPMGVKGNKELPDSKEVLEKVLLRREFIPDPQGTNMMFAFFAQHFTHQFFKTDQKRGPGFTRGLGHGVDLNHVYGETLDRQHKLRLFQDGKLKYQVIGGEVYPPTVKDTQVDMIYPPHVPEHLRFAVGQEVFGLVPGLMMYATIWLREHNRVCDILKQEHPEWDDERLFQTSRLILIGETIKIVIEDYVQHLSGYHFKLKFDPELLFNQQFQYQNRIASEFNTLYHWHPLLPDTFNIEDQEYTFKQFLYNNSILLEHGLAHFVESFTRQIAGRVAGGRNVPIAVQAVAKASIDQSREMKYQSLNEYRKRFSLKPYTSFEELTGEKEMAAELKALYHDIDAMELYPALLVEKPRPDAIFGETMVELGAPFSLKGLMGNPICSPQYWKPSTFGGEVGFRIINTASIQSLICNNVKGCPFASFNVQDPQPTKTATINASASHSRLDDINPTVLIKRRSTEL
Put plainly: in-vitro autoradiography in rat brain slices (self-block). The class given is binding. The source says:
Three ligands have been evaluated with in-vitro autoradiography in rat brain slices. Radiolabeling was accomplished via methylation of either a sulfinate precursor ([^11C]Rofecoxib), hydroxyl precursor ([^11C]MC1) or thiol precursor ([^11C]98) using [^11C]-methyl iodide and offers chemical flexibility for radiolabeling of future candidates. […] This translated into a ˜2-fold increase in COX2 specific binding in a rat brain slice in-vitro autoradiography. […] These properties enable us to better understand the contribution of potency and free fraction to the ligand's specific binding.
Three newly synthesized COX2 ligands were successfully radiolabeled using this strategy and first evaluated by in-vitro autoradiography in rat brain slices using self-block experiments (FIG. 5). […] [^11C]36 was also evaluated for specific binding using self-block experiments in human post-mortem brain tissues (globus pallidus) from three Huntington's disease (HD) patients (FIG. 6). COX2 protein levels were quantified using immunostaining and defined as high, medium and low, respectively.

`CS(=O)(=O)c1ccc(-c2cncc(NCc3cccs3)n2)cc1` [Compound 98]: the “increase in COX2 specific binding” value (rat brain slice in-vitro autoradiography, compared to MC1) is about 2 fold. Besides, the specific binding entry (rat brain slices in vitro autoradiography, self-block, compared to earlier tracers) is “increase in specific binding”.
